Measured values as given in patent US20230159436A1, “APPLICATIONS OF AMIDE ANALOGS OF TRITERPENES IN CURES OF CANCER AND OTHER DISEASES” (Pacific Arrow Limited, priority 2021, published 2023).
Like-named read-outs stand apart in the source and are kept apart here.

Assays:
[1] = tested on: cancer growth, cancer invasion, cells invasion or cancer cell invasion; test: Inhibition of cancer growth and invasion (anti-cancer activity); type: cell-based
Text: The program is based on the purification methods and biological assays including the MTT assay as described in International Application No. PCT/US05/31900, filed Sep. 7, 2005, U.S. Ser. No. 11/289,142, filed Nov. 28, 2005, and U.S. Ser. No. 11/131,551, filed May 17, 2005, and PCT/US2008/002086, 1188-ALA-PCT, filed Feb. 15, 2008, Ser. No. 12/344,682, 1020-B1-US, filed Dec. 29, 2008, US009499577B2, filed Jun. 24, 2014. The details of Analysis of gene expression of ES2 cells after Y-treatment by Microarray, Data Analysis Methods and Western blot in PCT/US2008/002086, 1188-ALA-PCT, filed Feb. 15, 2008, and the cell invasion experiments methods in International Application PCT/US2010/0042240, filed Jul. 16, 2010.

[2] = tested on: U2OS, H460, HTB-9, ES2, HCT116, Capan, OVCAR3, DU145, SK-Mel-5, KB, A498, MCF-7, HepG2, T98G, K562, HeLa; test: MTT Cytotoxic Assay of reaction products and isolated compounds; type: cell-based
Text: The peaks, fractions and compounds are selected according to the activities of times studies and the changes of peaks. Selecting the HPLC fractions for isolation is according to the cytotoxic activity of the reaction product obtained at a specific time. The compounds having strong to weak activities are selected and isolated. Selecting the HPLC fractions for isolation may be according to the cytotoxic activity of times studies and the change of peaks. The anti cancer activities are the MTT studies of bone (U2OS), lung (H460), bladder (HTB-9), ovary (ES2), colon (HCT116), pancreas (Capan), ovary (OVCAR3), prostate (DU145), skin (SK-Mel-5), mouth (KB), kidney (A498), breast (MCF-7), liver (HepG2), brain (T98G), luekemia (K562), cervix (HeLa).
Esterification, amidation, amination, or sulfonamidation of compound (A), (B), (C), (D1), (D2), (E), (F), (G), (H1), (H2), E4A, E4A2Y, E4D, E4D1, (P1), P(2), terpene, isoprene, triterpenes, hydroxylated triterpenes, with acyl halide, wherein the halide comprise chloride, bromide, fluoride and iodide, wherein the acyl halide comprise acyl chloride, wherein acyl chloride comprise tigloyl chloride, angeloyl chloride, acetyl chloride, crotonoyl chloride, 3,3-dimethylartyloyl chloride, senecioyl chloride, cinnamoyl chloride, pentenoyl chloride, hexanoyl chloride, benzoyl chloride, ethylbutyryl chloride, propionyl chloride, 2-propenoyl chloride, isobutyryl chloride, butyryl chloride, (2E)-2-pentenoyl chloride, 4-Pentenoyl chloride, 5-hexenoyl chloride, heptanoyl chloride, octanoyl chloride, nonanoyl chloride, decanoyl chloride, Lauroyl chloride, myristoyl chloride, oleoyl chloride. The compounds vary in composition when the time or temperature of the reaction is changed. The peaks, fractions and compounds are selected according to the activities of times studies and the changes of peaks. The compounds having strong to weak activities are selected and isolated. The anti cancer activities (Cytotoxic Assay) are the MTT studies of bone (U2OS), lung (H460), bladder (HTB-9), ovary (ES2), colon (HCT116), pancreas (Capan), ovary (OVCAR3), prostate (DU145), skin (SK-Mel-5), mouth (KB), kidney (A498), breast (MCF-7), liver (HepG2), brain (T98G), luekemia (K562), cervix (HeLa). The active esterification, amidation, amination, or sulfonamidation products are purified with HPLC. The reaction product of mixtures and individual compounds are tested with MTT Cytotoxic Assay. Details of method are in Experiment 3 of the present application. A second esterification of compound can be selected from the above experiment results to produce new active compounds. A partial esterification compound is selected from the above experiments to perform a second or repeated with a third esterification with different acyl chloride in order to produce new active compounds with the experiments in the present application. The active compounds of this invention are triterpenes in form of amine, sulfonamides, amide, and urea analogs, providing extremely stable activity in solution. They prolong the activities and duration of drug in a subject.
(§1) Cells. HTB-9 (bladder), HeLa-S3 (cervix), DU145 (prostate), H460 (lung), MCF-7 (breast), K562 (leukemia), HCT116 (colon), HepG2 (liver), U2OS (bone), T98G (brain), SK-MEL-5 (Skin) and OVCAR 3, ES2 (ovary), Pancreas (Capan), Mouth (KB), Kidney (A498).
MTT Assay. The procedure for MTT assay followed the method described by Carmichael et al. (1987) with modifications. The cells were seeded into a 96-well plate at for 24 hours before drug-treatment. The cells were then exposed to the drugs for 48, 72, or 96 hours. After the drug-treatment, MTT (0.5 mg/mL) was added to cultures and incubated for an hour. The formazan (product of the reduction of tetrazolium by viable cells) formed and was dissolved with DMSO and the O.D. at 490 nm, and was measured by an ELISA reader. The MTT level of the cells before drug-treatment was also measured (T0). […]

red blood cells (RBC) = test: Haemolytic assay; type: cell-based, human
Protocol: Erythrocytes (RBC) were isolated from human blood (EDTA whole blood, collected randomly). 50 ul of the 10% RBC suspension (in PBS) was added to 2 ml of sample solutions (concentration range from 0.1 ug/ml to 400 ug/ml) in PBS. The mixture was vortexed briefly and sat for 60 min at room temperature. The mixture was spun at 3K for 10 min and the relative amounts of lysed hemoglobin in the supernatant were measured at 540 nm. The synthetic compounds of present application were tested with this method.

OVCAR3 = test: MTT assay, ovary (OVCAR3); type: cell-based
Protocol: as §1
MTT Assay. The procedure for MTT assay followed the method described by Carmichael et al. (1987) with modifications. The cells were seeded into a 96-well plate at for 24 hours before drug-treatment. The cells were then exposed to the drugs for 48, 72, or 96 hours. After the drug-treatment, MTT (0.5 mg/mL) was added to cultures and incubated for an hour. The formazan (product of the reduction of tetrazolium by viable cells) formed and was dissolved with DMSO and the O.D. at 490 nm, and was measured by an ELISA reader. The MTT level of the cells before drug-treatment was also measured (T0). The % cell-growth (% G) is calculated as: % G=(TD−T0/TC−T0)×100(1), where TC or TD represents O.D. readings of control or drug-treated cells.
When T0>TD, then the cytotoxicity (LC) expressed as % of the control is calculated as: % LC=(TD−T0/T0)×100(2).

With `CC1O[C@@H](O[C@H]2C(O)[C@@H](O)C(C)O[C@H]2O[C@H]2C(O)[C@@H](O)C(CO)O[C@H]2OC2[C@H](O)C(C(=O)O)O[C@@H](O[C@H]3CC[C@@]4(C)C(CC[C@]5(C)C4CC[C@]46O[C@H](O)[C@]7(C4CC(C)(C)[C@@H](O)[C@@H]7O)[C@H](O)C[C@]65C)C3(C)C)[C@H]2O[C@@H]2OC(CO)[C@H](O)C(O)[C@@H]2O)[C@@H](O)C(O)[C@H]1O` (some centres unmarked) [AKOH-M10, reference compound] the “inhibiting cancer growth, cancer invasion, cells invasion or cancer cell invasion” value (from here on “inhibiting cancer growth”) [1] was “do not show the ability”.
For `CC1(C)CC2C3=CCC4[C@@]5(C)CC[C@H](O[C@@H]6OC(C(=O)O)[C@@H](O)C(O[C@@H]7O[C@@H](CO)C(O)[C@@H]7O)[C@@H]6O[C@@H]6OC(CO)[C@H](O)C(O)[C@@H]6O)C(C)(C)C5CC[C@@]4(C)[C@]3(C)[C@@H](O)[C@@H](O)[C@@]2(CO)[C@@H](O)[C@@H]1O` (some centres unmarked) [AKOH-Y, reference compound], the “inhibiting cancer growth” value [1] was “do not show the ability”.
For `CC1(C)CC2C3=CCC4[C@@]5(C)CC[C@H](O)[C@](C)(CO)C5CC[C@@]4(C)[C@]3(C)C[C@@H](O)[C@@]2(CO)[C@@H](O)[C@@H]1O` (some centres unmarked) [E4A], the MTT cytotoxic activity ([2]; FIG. 8, FIG. 10) was “no activity”, the hemolytic activity (red blood cells (RBC)) was “no hemolytic activity” and the anti-cancer activity [1] was “no anti-cancer activity”. The “inhibiting cancer growth” value [1] was “no effect”.
In the case of `CC1(C)CC2C3=CCC4C5(C)CCC(N)C(C)(CN)C5CCC4(C)C3(C)CC(N)C2(CN)C(N)C1N` (centres unmarked) [E4D1], the Cytotoxicity activity [2] is reported as “none and moderate and NONE”, the Cytotoxicity activity ([2]; listed as E1E4D1) is reported as “none” and the Cytotoxicity activity ([2]; listed as I 1E4D1) is reported as “none”. The hemolytic activity (red blood cells (RBC)) was “no hemolytic activity”, the anti-cancer activity [1] was “no anti-cancer activity” and the “inhibiting cancer growth” value [1] was “no effect”.
For `CC1(C)CC2C3=CCC4C5(C)CCC(O)C(C)(CN)C5CCC4(C)C3(C)CC(O)C2(CN)C(O)C1O` (centres unmarked) [E4D], the Cytotoxicity activity [2] was “none and None”, the hemolytic activity (red blood cells (RBC)) was “no hemolytic activity” and the anti-cancer activity [1] was “no anti-cancer activity”. The “inhibiting cancer growth” value [1] was “no effect”.
`C=CC(=O)NCC1(C)C(O)CCC2(C)C1CCC1(C)C2CC=C2C3CC(C)(C)C(O)C(O)C3(CNC(=O)C=C)C(O)CC21C` (centres unmarked) [MM2] was tested, and the Cytotoxicity activity [2] was “strong”.
For `C=CC(=O)NCC1(C)C(N)CCC2(C)C1CCC1(C)C2CC=C2C3CC(C)(C)C(NC(=O)C=C)C(N)C3(CN)C(N)CC21C` (centres unmarked) [MM3], the Cytotoxicity activity [2] was “moderate”.
`C=CC(=O)NCC1(C)C(N)CCC2(C)C1CCC1(C)C2CC=C2C3CC(C)(C)C(NC(=O)C=C)C(N)C3(CNC(=O)C=C)C(N)CC21C` (centres unmarked) [MM4] was tested, and the Cytotoxicity activity [2] was “weak”.
In the case of `CC(C)C(=O)NCC1(C)C(N)CCC2(C)C1CCC1(C)C2CC=C2C3CC(C)(C)C(N)C(N)C3(CNC(=O)C(C)C)C(N)CC21C` (centres unmarked) [NN1], the Cytotoxicity activity [2] is reported as “moderate”.
With `CC(C)C(=O)NCC1(C)C(O)CCC2(C)C1CCC1(C)C2CC=C2C3CC(C)(C)C(O)C(O)C3(CNC(=O)C(C)C)C(O)CC21C` (centres unmarked) [NN2] the Cytotoxicity activity [2] was “strong”.
`CC(C)C(=O)NCC1(C)C(N)CCC2(C)C1CCC1(C)C2CC=C2C3CC(C)(C)C(NC(=O)C(C)C)C(N)C3(CN)C(N)CC21C` (centres unmarked) [NN3] was tested, and the Cytotoxicity activity [2] was “moderate”.
With `CC(C)C(=O)NCC1(C)C(N)CCC2(C)C1CCC1(C)C2CC=C2C3CC(C)(C)C(NC(=O)C(C)C)C(N)C3(CNC(=O)C(C)C)C(N)CC21C` (centres unmarked) [NN4] the Cytotoxicity activity [2] was “weak”.
For `CCCC(=O)NCC1(C)C(N)CCC2(C)C1CCC1(C)C2CC=C2C3CC(C)(C)C(N)C(N)C3(CNC(=O)CCC)C(N)CC21C` (centres unmarked) [PP1], the Cytotoxicity activity [2] was “moderate”.
`CCCC(=O)NCC1(C)C(O)CCC2(C)C1CCC1(C)C2CC=C2C3CC(C)(C)C(O)C(O)C3(CNC(=O)CCC)C(O)CC21C` (centres unmarked) [PP2] was tested, and the Cytotoxicity activity [2] was “strong”.
In the case of `CCCC(=O)NCC1(C)C(N)CCC2(C)C1CCC1(C)C2CC=C2C3CC(C)(C)C(NC(=O)CCC)C(N)C3(CN)C(N)CC21C` (centres unmarked) [PP3], the Cytotoxicity activity [2] is reported as “moderate”.
`CCCC(=O)NCC1(C)C(N)CCC2(C)C1CCC1(C)C2CC=C2C3CC(C)(C)C(NC(=O)CCC)C(N)C3(CNC(=O)CCC)C(N)CC21C` (centres unmarked) [PP4] was tested, and the Cytotoxicity activity [2] was “weak”.
In the case of `CCC=CC(=O)NCC1(C)C(N)CCC2(C)C1CCC1(C)C2CC=C2C3CC(C)(C)C(N)C(N)C3(CNC(=O)C=CCC)C(N)CC21C` (centres unmarked) [QQ1], the Cytotoxicity activity [2] is reported as “moderate”.
`CCC=CC(=O)NCC1(C)C(O)CCC2(C)C1CCC1(C)C2CC=C2C3CC(C)(C)C(O)C(O)C3(CNC(=O)C=CCC)C(O)CC21C` (centres unmarked) [QQ2] was tested, and the Cytotoxicity activity [2] was “strong”.
For `CC=C(C)C(=O)OCC1(C)C(O)CCC2(C)C1CCC1(C)C2CC=C2C3CC(C)(C)C(O)C(O)C3(CO)C(O)CC21C` (centres unmarked) [Tig-N], the “IC50 of ovary (OVCAR3)” value (OVCAR3) was 18 and the anti-cancer activity [1] was “have anti cancer activities”.
For `CC=C(C)C(=O)OCC1(C)C(O)CCC2(C)C1CCC1(C)C2CC=C2C3CC(C)(C)C(O)C(OC(=O)C(C)=CC)C3(CO)C(O)CC21C` (centres unmarked) [Tig-Q], the “IC50 of ovary (OVCAR3)” value (OVCAR3) was 23 and the anti-cancer activity [1] was “have anti cancer activities”.
For `CC=C(C)C(=O)OCC1(C)C(O)CCC2(C)C1CCC1(C)C2CC=C2C3CC(C)(C)C(O)C(OC(=O)C(C)=CC)C3(COC(=O)C(C)=CC)C(O)CC21C` (centres unmarked) [Tig-T], the “IC50 of ovary (OVCAR3)” value (OVCAR3) was 25 and the anti-cancer activity [1] was “have anti cancer activities”.
For `CC=C(C)C(=O)OCC1(C)C(OC(=O)C(C)=CC)CCC2(C)C1CCC1(C)C2CC=C2C3CC(C)(C)C(OC(=O)C(C)=CC)C(O)C3(CO)C(O)CC21C` (centres unmarked) [Tig-U], the “IC50 of ovary (OVCAR3)” value (OVCAR3) was 27.
In the case of `CC=C(C)C(=O)OCC1(C)C(O)CCC2(C)C1CCC1(C)C2CC=C2C3CC(C)(C)C(OC(=O)C(C)=CC)C(O)C3(COC(=O)C(C)=CC)C(O)CC21C` (centres unmarked) [Tig-V], the “IC50 of ovary (OVCAR3)” value (OVCAR3) is reported as 9 and the anti-cancer activity [1] is reported as “have anti cancer activities”.
